The results in this text go back to US8088822B2, “Use of fenretinide or bioactive derivatives thereof and pharmaceutical compositions comprising the same” (priority 2008, dated 2012).

Like-named read-outs stand apart in the source and are kept apart here.

For one data set, the system named is AML CD34+ cells. The data set is described as follows: Apoptosis/viability of AML CD34+ cells (annexin-V FITC/7AAD). The format is cell-based, human. The following applies: for viability at 5 µM: 5 μM fenretinide. An excerpt: (§1) Fresh bone marrow (BM) cells were obtained from 38 patients with CML and 5 non-leukemic donors, 25 AML, 17 ALL, and 8 normal specimens with informed consent according to the Declaration of Helsinki. Approval was obtained from Institutional Review Board at the School of Medicine in Shanghai Jiao Tong University. BM mononuclear cells were isolated by Ficoll density gradient centrifugation (Shanghai Second Reagent Factory, Shanghai, China). CD34^+ Cell were selected using EasySep® Human CD34 Positive Selection kit (Stem Cell Technologies, Vancouver, BC, Canada) according to the manufacturer's instructions. The purity of CD34 cells ranged between 92 and 98% in all samples detennined by flow cytometry. The CD34^+ cells were cultured in a serum-free medium (StemPro 34; Gibco BRL, Gaithersburg, Md.) supplemented with growth factors (PeproTech, London, United Kingdom) (20). The growth factors consisted of GM-CSF (200 pg/mL), G-CSF (1 ng/mL); SCF (200 pg/mL); LIF (50 pg/mL), MIP-1α (200 pg/mL) and IL-6 (1 ng/mL).
(§2) Primitive AML and CML subpopulations (CD34^+ cells) were identified using CD34-PE in combination with CD38-APC, and followed by double-labeling with 7AAD and Annexin V antibodies for apoptosis assessment. The CD34^+ cells were first stained with antibodies against the surface markers CD34-PE and CD38-APC (Beckman Coulter, Fullerton, Calif.) and incubated at room temperature for 15 minutes. Cells were then washed with cold PBS and resuspended in 200 μL annexin V 1×binding buffer (10 mM HEPES/NaOH, pH 7.4, 140 mM NaCl, 2.5 mM CaCl2), 5 μL AnnexinV-FITC (BD Phanningen, San Diego, Calif.) and 7-aminoactinomycin (7-AAD, 0.25 mg/mL) (Molecular Probes, Eugene, Oreg.). Subsequently, the samples were incubated at room temperature for 15 minutes and analyzed by flow cytometry.
(§3) Primary acute leukemia cells from specimens including AML and ALL are mostly quiescent, especially for the subpopulations of leukemic CD34^+ cells (Guan and Hogge, 2000). To verify if this quiescent leukemia cells are sensitive to fenretinide, we compared the effects of fenretinide on primary leukemia versus normal specimens during short-term suspension culture. CD34^+ cells were isolated from primary acute leukemia specimens, and subjected to DNA content analysis through propidium iodide staining and followed by flow cytometry. The majority of isolated CD34^+ cells from AML and ALL were in G0/G1 phase of the cell cycle, indicating the quiescent feature of leukemia CD34^+ cells (FIG. 4A). Then, apoptosis profiles of AML CD34^+ cells and normal CD34^+ cells were examined through annexin-V FITC and 7AAD double staining (FIG. 4B).

The test system of a further data set is CML CD34+ cells. The data set is described as follows: Colony forming assay in primary CML CD34+ cells. Type of data set: cell-based, human. The conditions noted are these: 14 days; for inhibition at 2 µM / inhibition at 4 µM: Homo sapiens, 336 h; for inhibition at 2 µM: 2 μM fenretinide; for inhibition at 4 µM: 4 μM fenretinide.
Source text: as §1, with “The purity of CD34 cells ranged between 92 and 98% in all samples detennined by flow cytometry.” left out
A quantity of 1000 CD34^+ cells were plated in semisolid methylcellulose-based media (Methocult H4434: Stem Cell Technologies, Vancouver, BC, Canada). After incubation at 37° C. in a fully humidified atmosphere of 5% CO2 for 14 days, granulocyte macrophage-colony-forming units (CFU-GM), erythroid burst-forming units (BFU-E), granulocyte, erythrocyte and monocyte, megakaryocyte-colony-forming units (CUF-GEMM) were counted. Only clusters with >50 cells were counted as a colony.
We further performed study to examine the effects of fenretinide on colony forming in primary CML cells derived from 38 bone marrow specimens of CML patients (TABLE 1). First, CML CD34^+ Cells were isolated using EasySep® Human CD34 Positive Selection kit (Stem Cell Technologies, Vancouver, BC, Canada). Upon treated with 2 μM and 4 μM fenretinide, colony forming assays were performed respectively on granulocyte macrophage-colony-forming units (CFU-GM), erythroid burst-forming units (BFU-E), granulocyte, erythrocyte and monocyte, megakaryocyte-colony-forming units (CFU-GEMM).

The test system of another data set is K562. Kind of data set: Apoptosis in CML cell line K562. Type of data set: cell-based. The conditions noted are these: 4 μM fenretinide, 0.25 μM imatinib, 0.1 μM MG132, alone or combined. The method, then: 2×10^5 cultured cells were used for evaluating apoptosis using an ApoAlert Annexin V-FITC Apoptosis Kit (BD Biosciences). Cells were washed once by PBS, resuspended in 200 μl Annexin-V binding buffer, and then stained with Annexin V-FITC 5 μl, PI 10 μl for 15 min at room temperature in the dark. Cells were subsequently analyzed by flow cytometry.

The test system of data set [1] is CD34+CD38− acute leukemia stem and CD34+CD38+ progenitor population. Kind of data set: Apoptosis of acute leukemia (AML and ALL) stem and progenitor subpopulations. The following applies: AML and ALL specimens. Type of data set: cell-based, human. How it is done: as §2
Furthermore, we examined whether fenretinide can preferentially target highly quiescent LSCs with CD34^+CD38^− immunophenotyte and leukemia progenitor cells with CD34^+CD38^+ for AML and most ALL specimens. Due to the difficulty of obtaining adequate normal CD34^+CD38^− cells, our apoptosis data of normal specimens came from CD34^− cell populations. Also, we used Ara-C and VCR (vincristine) as controls to test the apoptosis of leukemia stem cells, which were thought to be resistant to these chemotherapeutics.

Data set [2] deals with normal hematopoietic CD34+ cells. Kind of data set: Apoptosis/viability of normal hematopoietic CD34+ cells. The format is cell-based, human.
Source text: as §1, §2, §3

For the next data set, the system named is ALL CD34+ cells. The data set is described as follows: Viability of ALL CD34+ cells. The following applies: Homo sapiens. Type of data set: cell-based.
Source text: as §1
Primitive AML and CML subpopulations (CD34^+ cells) were identified using CD34-PE in combination with CD38-APC, and followed by double-labeling with 7AAD and Annexin V antibodies for apoptosis assessment. […] Subsequently, the samples were incubated at room temperature for 15 minutes and analyzed by flow cytometry. […]

Where [3] appears, read: read-out: inhibition of BFU-E number.
[4] abbreviates: CFU-GM, read-out: inhibition of CFU-GM number.

By viability is commonly meant the share of living cells, or the viability signal relative to a control. A word on the inhibition: it is how much of the control response was suppressed. Consider `CC1=C(/C=C/C(C)=C/C=C/C(C)=C/C(=O)Nc2ccc(O)cc2)C(C)(C)CCC1` [fenretinide, N-(4-hydroxyphenyl)retinamide], for which the viability at 5 µM in the data set with AML CD34+ cells (Homo sapiens, 18 h, read-out: viability of most resistant AML specimen (AML #8)) is 89.7%; in the data set with AML CD34+ cells (Homo sapiens, 18 h, read-out: viability of most sensitive AML specimen (AML #20)) it was 0.5%; in the data set on AML CD34+ cells (Homo sapiens, 18 h in culture, read-out: mean viability of AML CD34+ cells) it was 45.4%; in the data set on ALL CD34+ cells (5 μM fenretinide), 58%. Besides, the viability at 7.5 µM was determined as 12.2% in the data set on AML CD34+ cells (Homo sapiens, 7.5 μM fenretinide, read-out: mean viability of AML CD34+ specimens) and 20.9% in the data set with ALL CD34+ cells (7.5 μM fenretinide). For the same molecule, the “apoptosis induction in AML CD34+ cells” value in the data set with AML CD34+ cells (short-term suspension culture) is “time- and dose-dependant manner”. Further, the inhibition at 2 µM with CML CD34+ cells (setting [3]) was 24%; with CML CD34+ cells (setting [4]), 19%. For the same molecule, the inhibition at 4 µM turned out to be 66% in the data set on CML CD34+ cells (setting [3]) and 36 ± 9% with CML CD34+ cells (setting [4]). Also, the “GFU-GEMM formed by the more primitive progenitor cells” value in the data set on CML CD34+ cells (fenretinide 2 μM and 4 μM) is recorded as “could not be detected”. Moreover, in the data set with K562, the apoptosis rate worked out at 2.46%. In addition, in data set [1], the “apoptosis in CD34+CD38− acute leukemia stem population versus CD34+CD38+ progenitor population” value is “more apoptosis”. Besides, the “viability of normal hematopoietic CD34+ cells” value in data set [2] (5 μM fenretinide) is given as 97.1%; in data set [2] (7.5 μM fenretinide), 58.1%. Further, the “safe dose (presumed)” value in data set [2] (from viability of normal CD34+ cells) is “below 5 μM”. The “response of normal hematopoietic CD34+ cells” value in data set [2] (short-term suspension culture) is reported as “relative resistant”.
